Tests used:
[1] = system: Hepatotoxicity;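 on HepSE bilirubinemia: bilirubinemia hepatic side effect score drawn from the DILIps training data, a prediction system for drug-induced liver injury; call rule not given here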;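 on HepSE cholecystitis: Cholecystitis-related hepatic side effect score drawn from the DILIps (drug-induced liver injury prediction) training data set; call rule not given here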;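 on HepSE cholelithiasis: hepatic side effect score for cholelithiasis, drawn from the DILIps training data for predicting drug-induced liver injury; call rule not given here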;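 on HepSE cirrhosis: cirrhosis hepatic side effect score taken from the DILIps (drug-induced liver injury prediction) training set; call rule not given here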;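 on HepSE elevated liver function tests: hepatic side effect score for raised liver function tests, as recorded in the DILIps training set used for predicting drug-induced liver injury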; on HepSE hepatic failure: call rule not given here;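 on HepSE hepatomegaly: hepatic side effect score for hepatomegaly, taken from the training set of the DILIps drug-induced liver injury prediction system; call rule not given here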
[2] = system: Hepatotoxicity; remark: listed apart in the source;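 on HepSE bilirubinemia: bilirubinemia hepatic side effect score drawn from the DILIps training data, a prediction system for drug-induced liver injury; call rule not given here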;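 on HepSE cholecystitis: Cholecystitis-related hepatic side effect score drawn from the DILIps (drug-induced liver injury prediction) training data set; call rule not given here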;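 on HepSE cholelithiasis: hepatic side effect score for cholelithiasis, drawn from the DILIps training data for predicting drug-induced liver injury; call rule not given here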;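 on HepSE cirrhosis: cirrhosis hepatic side effect score taken from the DILIps (drug-induced liver injury prediction) training set; call rule not given here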;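 on HepSE elevated liver function tests: hepatic side effect score for raised liver function tests, as recorded in the DILIps training set used for predicting drug-induced liver injury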; on HepSE hepatic failure: call rule not given here;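 on HepSE hepatomegaly: hepatic side effect score for hepatomegaly, taken from the training set of the DILIps drug-induced liver injury prediction system; call rule not given here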
[3] = system: Hepatotoxicity; remark: listed apart in the source;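 on HepSE bilirubinemia: bilirubinemia hepatic side effect score drawn from the DILIps training data, a prediction system for drug-induced liver injury; call rule not given here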;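 on HepSE cholecystitis: Cholecystitis-related hepatic side effect score drawn from the DILIps (drug-induced liver injury prediction) training data set; call rule not given here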;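 on HepSE cholelithiasis: hepatic side effect score for cholelithiasis, drawn from the DILIps training data for predicting drug-induced liver injury; call rule not given here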;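 on HepSE cirrhosis: cirrhosis hepatic side effect score taken from the DILIps (drug-induced liver injury prediction) training set; call rule not given here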;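 on HepSE elevated liver function tests: hepatic side effect score for raised liver function tests, as recorded in the DILIps training set used for predicting drug-induced liver injury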; on HepSE hepatic failure: call rule not given here
[4] = system: Hepatotoxicity; remark: listed apart in the source;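 on HepSE bilirubinemia: bilirubinemia hepatic side effect score drawn from the DILIps training data, a prediction system for drug-induced liver injury; call rule not given here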;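 on HepSE cholecystitis: Cholecystitis-related hepatic side effect score drawn from the DILIps (drug-induced liver injury prediction) training data set; call rule not given here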;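 on HepSE cholelithiasis: hepatic side effect score for cholelithiasis, drawn from the DILIps training data for predicting drug-induced liver injury; call rule not given here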;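 on HepSE cirrhosis: cirrhosis hepatic side effect score taken from the DILIps (drug-induced liver injury prediction) training set; call rule not given here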;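 on HepSE elevated liver function tests: hepatic side effect score for raised liver function tests, as recorded in the DILIps training set used for predicting drug-induced liver injury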; on HepSE hepatic failure: call rule not given here
[5] = system: Hepatotoxicity; remark: listed apart in the source; on HepSE hepatic failure: call rule not given here
[6] = system: Hepatotoxicity; remark: listed apart in the source; on HepSE hepatic failure: call rule not given here
[7] = system: Hepatotoxicity; remark: listed apart in the source
[8] = system: Hepatotoxicity; remark: listed apart in the source
[9] = system: Hepatotoxicity; remark: listed apart in the source
[10] = system: Hepatotoxicity; remark: listed apart in the source
[11] = system: Hepatotoxicity; remark: listed apart in the source
[12] = system: Hepatotoxicity; remark: listed apart in the source
[13] = system: Hepatotoxicity; remark: listed apart in the source
[14] = system: Hepatotoxicity; remark: listed apart in the source

SMILES	HepSE_bilirubinemia ([1]; Liver)	HepSE_cholecystitis ([2]; Liver)	HepSE_cholelithiasis ([3]; Liver)	HepSE_cirrhosis ([4]; Liver)	HepSE_elevated liver function tests ([5]; Liver)	HepSE_hepatic failure ([6]; Liver)	HepSE_bilirubinemia [1]	HepSE_cholecystitis [2]	HepSE_cholelithiasis [3]	HepSE_cirrhosis [4]	HepSE_elevated liver function tests [5]	HepSE_hepatic failure [6]	HepSE_hepatic necrosis [7]	HepSE_hepatitis [8]	HepSE_hepatomegaly [9]	HepSE_jaundice [10]	HepSE_liver disease [11]	HepSE_liver fatty [12]	HepSE_liver function tests abnormal [13]	HepSE_Combined Scores [14]	also measured
CCCc1cc(=O)[nH]c(=S)[nH]1 [PROPYLTHIOURACIL]	0	0	0	0	0	0	–	–	–	–	–	–	–	–	–	–	–	–	–	–	HepSE_hepatic necrosis ([7]; Liver): 0; HepSE_hepatitis ([8]; Liver): 1; HepSE_hepatomegaly ([9]; Liver): 0; HepSE_jaundice ([10]; Liver): 1; HepSE_liver disease ([11]; Liver): 0; HepSE_liver fatty ([12]; Liver): 0; HepSE_liver function tests abnormal ([13]; Liver): 0; HepSE_Combined Scores ([14]; Liver): 2
CNCCCC1c2ccccc2C=Cc2ccccc21 [PROTRIPTYLINE]	0	0	0	0	0	0	–	–	–	–	–	–	–	–	–	–	–	–	–	–	HepSE_hepatic necrosis ([7]; Liver): 0; HepSE_hepatitis ([8]; Liver): 0; HepSE_hepatomegaly ([9]; Liver): 0; HepSE_jaundice ([10]; Liver): 1; HepSE_liver disease ([11]; Liver): 0; HepSE_liver fatty ([12]; Liver): 0; HepSE_liver function tests abnormal ([13]; Liver): 0; HepSE_Combined Scores ([14]; Liver): 1
NC(=O)c1cnccn1 [PYRAZINAMIDE]	–	–	–	–	–	–	0	0	0	0	0	0	0	0	0	0	0	0	0	0	–
CN(C)C(=O)Oc1ccc[n+](C)c1 [PYRIDOSTIGMINE]	–	–	–	–	–	–	0	0	0	0	0	0	0	0	0	0	0	0	0	0	–
CCc1nc(N)nc(N)c1-c1ccc(Cl)cc1 [PYRIMETHAMINE]	–	–	–	–	–	–	0	0	0	0	0	0	0	0	0	0	0	0	0	0	–
OCCOCCN1CCN(C2=Nc3ccccc3Sc3ccccc32)CC1 [QUETIAPINE]	0	0	0	0	0	0	–	–	–	–	–	–	–	–	–	–	–	–	–	–	HepSE_hepatic necrosis ([7]; Liver): 0; HepSE_hepatitis ([8]; Liver): 0; HepSE_hepatomegaly ([9]; Liver): 0; HepSE_jaundice ([10]; Liver): 0; HepSE_liver disease ([11]; Liver): 0; HepSE_liver fatty ([12]; Liver): 0; HepSE_liver function tests abnormal ([13]; Liver): 0; HepSE_Combined Scores ([14]; Liver): 0
C=C[C@H]1C[N@@]2CC[C@H]1C[C@@H]2[C@@H](O)c1ccnc2ccc(OC)cc12 [QUINIDINE]	–	–	–	–	–	–	0	0	0	0	0	0	0	1	0	1	0	0	1	3	–
COCCCOc1ccnc(C[S+]([O-])c2nc3ccccc3[nH]2)c1C (configuration not stated) [RABEPRAZOLE]	–	–	–	–	–	–	0	1	1	1	0	0	0	1	0	1	0	1	1	7	–
